From US6916905B2, “Dmt-Tic di-and tri-peptidic derivatives and related compositions and methods of use” (The United States of America as represented by the …, priority 2000, dated 2005)
“Also recorded” adds a separate entry of the source. Read-outs that look alike come from different tables or passages of the source. Marks after values point to notes of the source that are not given here. Non-standard residues stand in square brackets, D forms with d. Residues, ends and D or L forms follow the SMILES beside them. *: point of attachment. Dmt = Cc1cc(O)cc(C)c1C[C@H](N)C(=O)O; Tic = O=C(O)[C@@H]1Cc2ccccc2CN1; NHPh = c1ccc(N*)cc1; NHtBu = CC(C)(C)N*

Experiments:
δ-opioid receptors [1] = molecular target: T1, δ-opioid receptors (Rattus norvegicus, UniProt P33533); assay: Rat brain synaptosome (P2) binding, agonist [3H]DPDPE (Example 47); conditions: for Ki: rat brain synaptosomes (P2), mean ± SEM, n in parentheses, read-out: Kiδ(nM) [^3H]DPDPE
T1 construct: assayed with a rat brain synaptosomal preparation (P2); from tissue; host or cells: rat brain P2 synaptosomes
T1 sequence (P33533 whole entry): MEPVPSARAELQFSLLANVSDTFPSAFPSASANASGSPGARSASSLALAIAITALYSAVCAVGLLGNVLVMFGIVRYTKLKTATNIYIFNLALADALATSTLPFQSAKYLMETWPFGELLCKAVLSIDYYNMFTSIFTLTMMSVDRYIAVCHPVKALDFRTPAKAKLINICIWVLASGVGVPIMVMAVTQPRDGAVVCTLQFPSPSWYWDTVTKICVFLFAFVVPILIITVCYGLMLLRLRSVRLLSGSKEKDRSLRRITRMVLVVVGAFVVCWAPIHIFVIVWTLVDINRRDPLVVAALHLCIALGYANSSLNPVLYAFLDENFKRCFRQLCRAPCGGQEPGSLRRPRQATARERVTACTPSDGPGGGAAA
Experimental: (§3) Briefly, the agonists [^3H]DPDPE (30-60 Ci/mmol, NEN-DuPont) and [^3H]DAGO (30-60 Ci/mmol, Amersham) were used to label δ and μ sites, respectively, under saturation binding conditions (2 hrs at 22° C.). Excess unlabeled peptide (2 μM) established non-specific binding levels and the labeled membranes were rapidly filtered on Whatman GF/C glass fibre filters, thoroughly washed, dried and measured for radioactivity using CytoScint (ICN, Irvine, Calif.). […] The affinity constants (Ki) were calculated according to Cheng and Prusoff (Biochem. Pharmacol. 22: 3099-3108 (1973)).

δ-opioid receptors [2] = molecular target: T1, δ-opioid receptors; assay: Rat brain synaptosome (P2) binding, δ antagonist [3H]N,N(CH3)2-Dmt-Tic-OH (Example 47); conditions: for Antagonist K1μ/Kiδ: selectivity, Kiδ from antagonist radioligand [3H]N,N(CH3)2-Dmt-Tic-OH
Experimental: as §3

μ-opioid receptors = molecular target: T2, μ-opioid receptors (Rattus norvegicus, UniProt P33535); assay: Rat brain synaptosome (P2) binding, [3H]DAGO (Example 47); conditions: rat brain synaptosomes (P2); mean ± SEM, n in parentheses; read-out: Kiμ (nM) [^3H]DAGO
T2 construct: assayed with a rat brain synaptosomal preparation (P2); from tissue; host or cells: rat brain P2 synaptosomes
T2 sequence (P33535 whole entry): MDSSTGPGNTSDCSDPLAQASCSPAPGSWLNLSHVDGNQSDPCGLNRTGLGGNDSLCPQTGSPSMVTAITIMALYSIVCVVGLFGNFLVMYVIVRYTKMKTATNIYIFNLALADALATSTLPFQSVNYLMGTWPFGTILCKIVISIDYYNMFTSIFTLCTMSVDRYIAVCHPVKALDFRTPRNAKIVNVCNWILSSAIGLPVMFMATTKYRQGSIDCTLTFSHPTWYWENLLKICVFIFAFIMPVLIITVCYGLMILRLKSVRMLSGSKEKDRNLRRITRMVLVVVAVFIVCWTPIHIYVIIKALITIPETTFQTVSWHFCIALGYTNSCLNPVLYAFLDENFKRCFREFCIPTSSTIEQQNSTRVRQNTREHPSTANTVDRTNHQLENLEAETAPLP

δ receptors [3] = molecular target: T3, δ receptors (Mus musculus, UniProt P32300); conditions: for MVD Ke: δ antagonism, Ke = antilog of pA2
T3 sequence (P32300 whole entry): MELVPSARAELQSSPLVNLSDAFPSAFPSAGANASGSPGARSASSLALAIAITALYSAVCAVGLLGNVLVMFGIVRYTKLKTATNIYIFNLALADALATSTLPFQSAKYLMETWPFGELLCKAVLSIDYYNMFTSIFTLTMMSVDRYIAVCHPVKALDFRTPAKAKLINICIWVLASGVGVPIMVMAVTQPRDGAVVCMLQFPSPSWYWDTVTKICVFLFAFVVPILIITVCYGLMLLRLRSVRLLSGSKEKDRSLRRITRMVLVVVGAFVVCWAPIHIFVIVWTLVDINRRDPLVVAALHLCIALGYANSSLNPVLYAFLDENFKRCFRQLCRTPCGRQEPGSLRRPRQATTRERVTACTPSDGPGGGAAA
Experimental: (§1) The functional bioactivity of the present inventive compounds was assessed using standard functional bioassays of δ and μ activity in MVD and GPI (Salvadori et al. (1995), supra; and Salvadori et al., J. Med. Chem. 36: 3748-3756 (1993)). […] Dose-response curves were obtained (Salvadori et al. (1995), supra) for both tissues. […] Data were derived from at least four independent tissue samples and dose-response curves from which the pA2 values were determined (Salvadori et al. (1997), supra) according to Arunlakshana and Schild (Br. J. Pharmacol. 14: 48-58 (1959)).

μ receptors [4] = molecular target: T4, μ receptors (Cavia porcellus, UniProt P97266); assay: Guinea pig ileum (GPI) functional bioassay (Example 48)
T4 sequence (P97266 whole entry, looked up): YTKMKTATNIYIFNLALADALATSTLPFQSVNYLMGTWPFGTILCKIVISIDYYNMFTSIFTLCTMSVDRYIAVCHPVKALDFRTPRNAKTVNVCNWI
Experimental: as §1

hMDR-1 = hMDR-1 (Homo sapiens, UniProt P08183); assay: Calcein AM assay for Pgp in hMDR-1 transfected G-185 fibroblasts (Example 49); conditions: for inhibition of hMDR-1 (Pgp), in words: calcein fluorescence
Chain of hMDR-1 (P08183 whole entry): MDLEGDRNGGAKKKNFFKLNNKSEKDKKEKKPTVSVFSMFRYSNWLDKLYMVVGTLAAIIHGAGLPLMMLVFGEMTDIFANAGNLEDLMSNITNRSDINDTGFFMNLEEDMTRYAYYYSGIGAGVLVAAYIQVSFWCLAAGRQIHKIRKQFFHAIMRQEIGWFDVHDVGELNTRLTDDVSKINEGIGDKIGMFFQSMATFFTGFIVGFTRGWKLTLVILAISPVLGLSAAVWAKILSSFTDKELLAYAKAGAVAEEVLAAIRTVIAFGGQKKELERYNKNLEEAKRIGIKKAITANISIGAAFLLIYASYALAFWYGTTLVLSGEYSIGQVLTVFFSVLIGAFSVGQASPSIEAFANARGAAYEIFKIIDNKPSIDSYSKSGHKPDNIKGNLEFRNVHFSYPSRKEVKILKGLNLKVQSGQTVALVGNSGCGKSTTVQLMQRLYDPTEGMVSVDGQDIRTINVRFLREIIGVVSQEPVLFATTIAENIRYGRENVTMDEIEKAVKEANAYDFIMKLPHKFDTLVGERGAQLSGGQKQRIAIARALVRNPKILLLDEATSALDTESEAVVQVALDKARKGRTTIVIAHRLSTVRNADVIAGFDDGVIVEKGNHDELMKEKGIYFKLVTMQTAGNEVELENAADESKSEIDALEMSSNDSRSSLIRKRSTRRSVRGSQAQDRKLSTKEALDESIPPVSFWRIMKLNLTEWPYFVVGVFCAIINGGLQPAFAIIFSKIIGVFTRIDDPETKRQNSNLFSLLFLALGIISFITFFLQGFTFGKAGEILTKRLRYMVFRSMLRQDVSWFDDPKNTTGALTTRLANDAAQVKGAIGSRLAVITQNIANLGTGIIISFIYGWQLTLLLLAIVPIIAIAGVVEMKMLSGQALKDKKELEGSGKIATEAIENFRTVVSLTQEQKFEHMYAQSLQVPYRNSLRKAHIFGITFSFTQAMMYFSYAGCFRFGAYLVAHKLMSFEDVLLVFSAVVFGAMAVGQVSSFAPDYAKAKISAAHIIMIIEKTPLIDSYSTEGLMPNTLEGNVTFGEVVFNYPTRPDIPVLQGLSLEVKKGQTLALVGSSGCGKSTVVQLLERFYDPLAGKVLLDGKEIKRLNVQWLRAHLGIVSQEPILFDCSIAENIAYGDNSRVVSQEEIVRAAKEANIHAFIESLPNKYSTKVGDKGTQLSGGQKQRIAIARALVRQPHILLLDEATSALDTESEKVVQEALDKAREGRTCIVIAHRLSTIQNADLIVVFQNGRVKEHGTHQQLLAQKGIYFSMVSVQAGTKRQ
Experimental: Stably transfected G-185 fibroblasts containing hMDR-1 and NIH 3T3 cell lines were grown to confluent monolayers in DMEM containing 4.5 g glucose/1, 10% fetal calf serum, L-glutamine, penicillin (50 units/ml), streptomycin (50 μg/ml) and 1 mM sodium pyruvate in 5% CO2 at 37° C. G-185 cells were maintained in […] colchicine.
The assay for Pgp is based on the diffusion of non-fluorescent calcein AM across the cell membrane. Calcein AM is then hydrolyzed and accumulates as the fluorescent calcein. In transfected cells expressing excess hMDR-1, Pgp extrudes calcein AM from the cell before hydrolysis occurs; inhibition of hMDR-1 results in the accumulation of intracellular calcein. Transfected G-185 cells and the NIH 3T3 cells were analyzed in triplicate using seven graded dosages of verapamil or the opioid peptides in 96-well plates. Cells (2.5×10^6/well) were incubated in 100 μl culture medium for 15 min at 37° C. and 50 μl of 1 μM calcein AM in PBS, plus 50 μl of verapamil or one of the present inventive compounds in PBS, or 100 μl of PBS alone (control) were added. Cells were mixed and incubated for 15 min at 37° C., then centrifuged for 5 min at 2,000×g, and then washed three times in 200 μl PBS. Cell pellets were resuspended in 200 μl PBS and transferred to white Microfluor Plates (Nunc, Copenhagen, Denmark) in order to measure calcein-specific fluorescence (494 nm absorption; 517 nm emission). Internal controls were carried out with each experiment using verapamil and PBS in order to compare the consistency between cell preparations. Means±SE (error bars) were determined and plotted using Prism™ (GraphPad, San Diego, Calif.).

δ receptors [5] = molecular target: T5, δ receptors (Rattus norvegicus, UniProt P33533); assay: Radio-receptor competition assay, rat brain synaptosomes, [3H]DPDPE (Example 74); format: binding; conditions: for Ki: rat brain P2 synaptosomes, [3H]DPDPE, read-out: Receptor affinity (nM) Kiδ; for μ/δ: selectivity Kiμ/Kiδ
T5 construct: assayed with a rat brain synaptosomal preparation (P2); from tissue; host or cells: rat brain P2 synaptosomes
T5 sequence (P33533 whole entry): as the sequence (P33533 whole entry) above
Experimental: (§2) After 120 min incubation at room temperature (23-24° C.), the samples were rapidly filtered through Whatman GF/C glass fiber filers and washed three times with 2 ml ice-cold 0.05 M Tris, pH 7.4-7.5, containing 0.1% BSA. Presoaking filters in 0.1% polyethylenimine is only required in assays with peptides carrying an overall positive charge, such as dynorphin or nociceptin (Guerrini et al., J. Med. Chem., 40: 1789-1793 (1997)). Non-specific binding was determined using 2 μM unlabeled DPDPE or DAGO for δ or μ assays, respectively. The Ki data, determined according to Cheng and Prusoff (Cheng et al., Biochem. Pharmacol., 22: 3099-3108 (1973)), represent the means±SE from 3 or more independent assays using at least 3 different synaptosome preparations and testing the analogues with 5-8 graded dosages over 2-3 orders of magnitude in concentration.

μ receptors [6] = molecular target: T6, μ receptors (Rattus norvegicus, UniProt P33535); assay: Radio-receptor competition assay, rat brain synaptosomes, [3H]DAGO (Example 74); format: binding; conditions: for Ki: rat brain P2 synaptosomes, [3H]DAGO
T6 construct: assayed with a rat brain synaptosomal preparation (P2); from tissue; host or cells: rat brain P2 synaptosomes
T6 sequence (P33535 whole entry): as the sequence (P33535 whole entry) above
Experimental: as §2

μ receptors [7] = molecular target: T4, μ receptors; conditions: Balboni et al. (2000); read-out: μ agonist activity IC50, published data; cited from earlier work
δ receptors [8] = molecular target: T3, δ receptors; assay: MVD functional pharmacological bioassay (Example 75); parameters: A single MVD was suspended in 4 ml modified Kreb's solution; from tissue; host or cells: mouse vas deferens; conditions: for MVD, antagonist activity (pA2) N,N(CH3)2-Dmt-Tic-OH: pA2 of N,N(CH3)2-Dmt-Tic-OH against the listed δ agonist; for MVD, antagonist activity (pA2) naloxone: pA2 of naloxone against the listed δ agonist
δ receptors [9] = molecular target: T3, δ receptors; parameters: A single MVD was suspended in 4 ml modified Kreb's solution; from tissue; host or cells: mouse vas deferens; conditions: Balboni et al. (2000); cited from earlier work
μ receptors [10] = molecular target: T4, μ receptors; assay: GPI functional pharmacological bioassay (Example 75); parameters: species or system guinea pig; conditions: μ agonism
Experimental: The in vitro pharmacological assays used a single MVD for δ receptors and a 2- to 3-cm segment of GPI for μ receptors with each suspended in 20 ml organ baths containing balanced salt solutions in a physiological buffer (Salvadori et al., Mol. Med., 1: 678-689 (1995)). […] Data were obtained from 4 independent assays and tissue samples. Agonism is expressed as the IC50 (nM) value and antagonism as pA2 (Labarre et al., Eur. J. Pharm., 406: R1-R3 92000)).

δ-opioid receptors [11] = molecular target: T1, δ-opioid receptors; conditions: selectivity; Kiδ from [3H]DPDPE; cells marked a/b: Salvadori et al. (1995), (1997); cited from earlier work
δ-opioid receptors [12] = molecular target: T1, δ-opioid receptors; conditions: radioligand; Kertesz et al. (1998); cited from earlier work
[13] = read-out: Receptor affinity (nM) Kiμ

Cc1cc(O)cc(C)c1C[C@H](N)C(=O)N1Cc2ccccc2C[C@H]1C(=O)N[C@@H](C)C(=O)NC(C)(C)C [Compound 20, H-Dmt-Tic-Ala-NH-tBu] (H-[Dmt]-[Tic]-Ala-NHtBu; N-terminus and C-terminus assumed)
Ki (δ-opioid receptors [1]): 0.066 ± 0.01 nM
Agonist K1μ/Kiδ (δ-opioid receptors [1]; selectivity, Kiδ from agonist radioligand [3H]DPDPE): 61
Ki (δ-opioid receptors [2]; rat brain synaptosomes (P2), δ antagonist radioligand, mean ± SEM, n in parentheses, read-out: Kiδ(nM) [^3H]N,N(CH3)2-Dmt-Tic-OH): 0.08 ± 0.02 nM
Antagonist K1μ/Kiδ (δ-opioid receptors [2]): 48
Ki (μ-opioid receptors): 4.03 ± 0.21 nM
bioactivity on MVD (δ), in words (δ receptors [3]): highest δ-antagonist functional bioactivities
Kb (δ receptors [3]; MVD pA2 (range), δ antagonism against deltorphin C, mean (range)): 0.692 nM
MVD Ke (δ receptors [3]): 0.69 nM
EC50 (μ receptors [4]): > 10000 nM
Kb (μ receptors [4]): 174 nM
GPI Ke (μ receptors [4]; μ antagonism): 0.17 µM
order of inhibition of hMDR-1 (hMDR-1; rank within amide series): (compound 20)>H-Dmt-Tic-NH-tBu (compound 9)

Cc1cc(O)cc(C)c1CC(N)C(=O)N1Cc2ccccc2CC1c1nc2ccccc2[nH]1 (stereo not drawn) [Compound 23, 2-amino-1-[3-(1H-benzoimidazole-2-yl)-3,4-dihydro-1H-isoquinoline-2-yl]-3-(4-hydroxyl-2,6-dimethylphenyl)-propane-1-one]
δ binding affinity greater than H-Dmt-Tic-ol (δ receptors [5]): 3 fold
δ binding affinity higher than H-Dmt-Tic-NH2 (δ receptors [5]): 10 fold
Ki (δ receptors [5]): 0.13 nM
μ/δ (δ receptors [5]): 7.28
increase in μ receptor affinity relative to H-Dmt-Tic-NH2 (μ receptors [6]): ~40 fold
Ki (μ receptors [6]; [13]): 7.22 nM
IC50 (μ receptors [7]): 30 nM
reduction of electrical stimulation of the tissue (δ receptors [8]; high concentration (up to 1 μM)): 83%
δ antagonism pA2, published data (δ receptors [9]): 7.67

Cc1cc(O)cc(C)c1C[C@H](N)C(=O)N1Cc2ccccc2C[C@H]1C(=O)NCc1nc2ccccc2[nH]1 [Compound 24, H-Dmt-Tic-NH—CH2-Bid]
δ activity on MVD, in words (δ receptors [8]): potent δ-agonist activity
MVD, antagonist activity (pA2) N,N(CH3)2-Dmt-Tic-OH (δ receptors [8]): 9.70
MVD, antagonist activity (pA2) naloxone (δ receptors [8]): 7.45
Functional Bioactivity MVD (pEC50) (δ receptors [8]; δ agonism): 9.90

Cc1cc(O)cc(C)c1C[C@H](N)C(=O)N1Cc2ccccc2C[C@H]1C(=O)NCC(=O)NCc1nc2ccccc2[nH]1 [Compound 26, H-Dmt-Tic-Gly-NH—CH2-Bid]
δ/μ selectivity, in words (δ receptors [5]; from Table IV binding): essentially non-selective
μ/δ (δ receptors [5]): 353
δ activity on MVD, in words (δ receptors [8]): potent δ antagonist activity

Cc1cc(O)cc(C)c1C[C@H](N)C(=O)N1Cc2ccccc2C[C@H]1C(=O)NCC(=O)Nc1ccccc1 [Compound 27, H-Dmt-Tic-Gly-NH-Ph] (H-[Dmt]-[Tic]-Gly-NHPh)
Ki (δ receptors [5]): 0.042 nM
μ/δ (δ receptors [5]): 3.6
Ki (μ receptors [6]; Receptor affinity (nM) Kiμ): < 1 nM
Ki (μ receptors [6]; [13]): 0.16 nM
Functional Bioactivity GPI (pEC50) (μ receptors [10]): 8.59
EC50 (δ receptors [8]): 3.02 nM
δ activity on MVD, in words (δ receptors [8]): potent δ-agonist activity; also recorded: essentially equivalent activity as a δ agonist and a μ agonist
lower antagonist activity of N,N(Me)2-Dmt-Tic-OH against this agonist than against deltorphin C and 24 (δ receptors [8]; MVD): 5 fold
MVD, antagonist activity (pA2) N,N(CH3)2-Dmt-Tic-OH (δ receptors [8]): 9.04
MVD, antagonist activity (pA2) naloxone (δ receptors [8]): 7.47

Cc1cc(O)cc(C)c1C[C@H](N)C(=O)N1Cc2ccccc2C[C@H]1C(=O)N[C@@H](C)C(N)=O [H-Dmt-Tic-Ala-NH2, reference compound] (H-[Dmt]-[Tic]-Ala-NH2)
Ki (δ-opioid receptors [1]): 0.24 ± 0.02 nM
Antagonist K1μ/Kiδ (δ-opioid receptors [2]): 68
Ki (μ-opioid receptors): 47 ± 3.4 nM
MVD Ke (δ receptors [3]): 9.0 nM
inhibition of hMDR-1 (Pgp), in words (hMDR-1): inactive
Ki (δ receptors [5]): 0.22 nM
μ/δ (δ receptors [5]): 195
Ki (μ receptors [6]; [13]): 47 nM
Agonist K1μ/Kiδ (δ-opioid receptors [11]): 195^a

Cc1cc(O)cc(C)c1C[C@H](N)C(=O)N1Cc2ccccc2C[C@H]1C(=O)N[C@@H](C)C(=O)O [H-Dmt-Tic-Ala-OH, reference compound] (H-[Dmt]-[Tic]-Ala-OH)
Antagonist K1μ/Kiδ (δ-opioid receptors [2]): 2784
MVD Ke (δ receptors [3]): 4.0 nM
Agonist K1μ/Kiδ (δ-opioid receptors [11]): 2852^a

Cc1cc(O)cc(C)c1C[C@H](N)C(=O)N1Cc2ccccc2C[C@H]1C(N)=O [H-Dmt-Tic-NH2] (H-[Dmt]-[Tic]-NH2)
Agonist K1μ/Kiδ (δ-opioid receptors [11]): 227^a

Cc1cc(O)cc(C)c1C[C@H](N)C(=O)N1Cc2ccccc2C[C@H]1C(=O)O [H-Dmt-Tic-OH, reference compound] (H-[Dmt]-[Tic]-OH)
Ki (μ-opioid receptors): 3320 ± 435 nM
MVD Ke (δ receptors [3]): 5.7 nM
Ki (μ receptors [6]; [13]): 3320 nM
Agonist K1μ/Kiδ (δ-opioid receptors [11]): 150800^a

Cc1cc(O)cc(C)c1C[C@H](N)C(=O)N1Cc2ccccc2C[C@H]1CO [H-Dmt-Tic-ol, reference compound]
μ/δ (δ receptors [5]): 344
Ki (μ receptors [6]; [13]): 151 nM

Cc1cc(O)cc(C)c1C[C@@H](C(=O)N1Cc2ccccc2C[C@H]1C(=O)O)N(C)C [N,N(Me)2-Dmt-Tic-OH, reference compound]
Antagonist K1μ/Kiδ (δ-opioid receptors [2]): 34785
Ki (μ-opioid receptors): 2440 ± 462 nM
MVD pA2 (range) (δ receptors [3]; δ antagonism against deltorphin C, mean (range)): 9.4
inhibition of hMDR-1 (Pgp), in words (hMDR-1): inactive
Agonist K1μ/Kiδ (δ-opioid receptors [11]): 20636^b

[^3H]N,N-(CH3)2-Dmt-Tic-OH
Kd (δ-opioid receptors [12]): 0.39 nM
